Earlier results in patent US10463585B2, “Cosmetic compositions” (The Procter & Gamble Company, priority 2017, dated 2019).

Test system: tyrosinase expression
Settings: in vivo; background statement

PKEK (Artificial sequence is synthesized)
Tyrosinase expression: reduce tyrosinase expression
